# ChEMBL document CHEMBL6153079, “Discovery of noncovalent diaminopyrimidine-based Inhibitors for glioblastoma via a dual FAK/DNA targeting strategy” (Eur J Med Chem, 2025)
# Active and inactive are the calls of the source. The rule behind the calls is not given here.
# Assays:
# U-251 = assay: Antiproliferative activity against human U-251 assessed as cell viability incubated for 48 hrs by MTT assay; type: functional, cell-based; details: U-251, 48 h
# Focal adhesion kinase 1 [1] = target: T1, Focal adhesion kinase 1 (Homo sapiens, UniProt Q05397); assay: Inhibition of FAK (unknown origin) at 50 nM relative to control
# T1 sequence (Q05397 2-1052 limits assumed): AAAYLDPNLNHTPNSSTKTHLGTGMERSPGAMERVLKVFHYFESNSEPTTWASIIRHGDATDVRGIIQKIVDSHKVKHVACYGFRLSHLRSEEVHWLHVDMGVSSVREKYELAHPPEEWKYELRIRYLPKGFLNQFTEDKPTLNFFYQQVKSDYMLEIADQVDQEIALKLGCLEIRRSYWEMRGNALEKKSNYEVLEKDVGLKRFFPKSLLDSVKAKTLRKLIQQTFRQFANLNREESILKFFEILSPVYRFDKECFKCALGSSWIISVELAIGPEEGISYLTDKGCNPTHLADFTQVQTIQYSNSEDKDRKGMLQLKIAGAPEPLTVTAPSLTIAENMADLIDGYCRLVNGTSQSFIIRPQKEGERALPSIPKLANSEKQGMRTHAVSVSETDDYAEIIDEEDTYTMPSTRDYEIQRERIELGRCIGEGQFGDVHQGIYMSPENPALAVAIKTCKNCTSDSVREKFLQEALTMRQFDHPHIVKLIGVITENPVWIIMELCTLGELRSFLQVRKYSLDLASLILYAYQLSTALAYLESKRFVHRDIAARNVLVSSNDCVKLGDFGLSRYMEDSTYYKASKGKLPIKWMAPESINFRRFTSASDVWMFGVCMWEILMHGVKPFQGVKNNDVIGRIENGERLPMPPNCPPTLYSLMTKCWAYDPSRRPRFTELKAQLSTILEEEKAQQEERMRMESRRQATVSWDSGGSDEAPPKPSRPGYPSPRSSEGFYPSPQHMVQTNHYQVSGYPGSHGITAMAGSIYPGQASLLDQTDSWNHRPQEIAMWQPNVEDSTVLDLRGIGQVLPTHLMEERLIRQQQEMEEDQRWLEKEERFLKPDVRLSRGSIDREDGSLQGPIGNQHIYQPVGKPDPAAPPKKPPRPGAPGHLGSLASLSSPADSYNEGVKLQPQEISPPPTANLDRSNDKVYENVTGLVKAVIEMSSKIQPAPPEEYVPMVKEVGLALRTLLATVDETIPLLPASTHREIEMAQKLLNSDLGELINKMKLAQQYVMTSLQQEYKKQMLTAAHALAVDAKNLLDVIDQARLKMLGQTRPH
# Focal adhesion kinase 1 [2] = target: T1, Focal adhesion kinase 1; assay: Inhibition of FAK (unknown origin) at 10 nM relative to control
# [3] = Distribution coefficient, logD of compound in n-Octanol/water at pH 7.4; type: physicochemical
# U-87 MG [4] = assay: Induction of DNA damage in human U-87 MG cells assessed as comet tail moment at 0.1 to 2 uM incubated for 2.5 to 3 hrs by comet assay; type: functional, U-87MG ATCC; details: time 2.5-3 hrs
# U-87 MG [5] = assay: Antiproliferative activity against human U-87 MG assessed as cell growth inhibition at 0.1 to 2 uM; type: functional, cell-based; details: U-87MG ATCC
# U-87 MG [6] = assay: Antiproliferative activity against human U-87 MG assessed as inhibition of cell growth at 0.005 uM by clonogenic assay relative to control; type: functional, U-87MG ATCC
# U-87 MG [7] = assay: Inhibition of cell migration in human U-87 MG cells assessed as […] in migration distance at 0.1 to 1 uM incubated for 24 to 48 hrs by wound healing assay; type: functional, cell-based; details: U-87MG ATCC, dose 0.1-1 µM, time lower 24.0 hrs, time upper […]
# Focal adhesion kinase 1 [8] = target: T1, Focal adhesion kinase 1; assay: Inhibition of FAK phosphorylation in human U-87 MG cells at 0.8 uM incubated for 24 hrs by Western blot analysis; type: cell-based
# U-87 MG [9] = assay: Inhibition of AKT phosphorylation in human U-87 MG cells at 0.8 uM incubated for 24 hrs by Western blot analysis; type: cell-based
# U-87 MG [10] = assay: Induction of apoptosis in human U-87 MG cells assessed as viable cells at 2 uM measured upto 24 hrs by Annexin V-FITC/PI staining based flow cytometry analysis (reference value: 98.4%); type: functional, U-87MG ATCC; details: read-out: Activity
# U-87 MG [11] = assay: Induction of apoptosis in human U-87 MG cells assessed as early apoptotic cells at 2 uM measured upto 24 hrs by Annexin V-FITC/PI staining based flow cytometry analysis (reference value: 0.45%); type: functional, U-87MG ATCC
# U-87 MG [12] = assay: Induction of apoptosis in human U-87 MG cells assessed as late apoptotic cells at 2 uM measured upto 24 hrs by Annexin V-FITC/PI staining based flow cytometry analysis (reference value: 0.54%); type: functional, U-87MG ATCC
# U-87 MG [13] = assay: Induction of apoptosis in human U-87 MG cells assessed as necrotic cells at 2 uM measured upto 24 hrs by Annexin V-FITC/PI staining based flow cytometry analysis (reference value: 0.62%); type: functional, U-87MG ATCC
# U-87 MG [14] = assay: Induction of apoptosis in human U-87 MG cells assessed as viable cells at 0.02 uM measured upto 24 hrs by Annexin V-FITC/PI staining based flow cytometry analysis (reference value: 98.4%); type: functional, U-87MG ATCC; details: read-out: Activity
# U-87 MG [15] = assay: Induction of apoptosis in human U-87 MG cells assessed as late apoptotic cells at 0.02 uM measured upto 24 hrs by Annexin V-FITC/PI staining based flow cytometry analysis (reference value: 0.54%); type: functional, U-87MG ATCC
# U-87 MG [16] = assay: Induction of apoptosis in human U-87 MG cells assessed as necrotic cells at 0.02 uM measured upto 24 hrs by Annexin V-FITC/PI staining based flow cytometry analysis (reference value: 0.62%); type: functional, U-87MG ATCC
# U-87 MG [17] = assay: Induction of apoptosis in human U-87 MG cells assessed as viable cells at 0.2 uM measured upto 24 hrs by Annexin V-FITC/PI staining based flow cytometry analysis (reference value: 98.4%); type: functional, U-87MG ATCC; details: read-out: Activity
# U-87 MG [18] = assay: Induction of apoptosis in human U-87 MG cells assessed as early apoptotic cells at 0.2 uM measured upto 24 hrs by Annexin V-FITC/PI staining based flow cytometry analysis (reference value: 0.45%); type: functional, U-87MG ATCC
# U-87 MG [19] = assay: Induction of apoptosis in human U-87 MG cells assessed as necrotic cells at 0.2 uM measured upto 24 hrs by Annexin V-FITC/PI staining based flow cytometry analysis (reference value: 0.62%); type: functional, U-87MG ATCC
# U-87 MG [20] = assay: Induction of apoptosis in human U-87 MG cells assessed as […] in Bcl-xL level at 0.05 to 0.8 uM incubated for 24 hrs by Western blot analysis; type: functional, cell-based; details: U-87MG ATCC, dose 0.05-0.8 µM
# U-87 MG [21] = assay: Induction of cell cycle arrest in human U-87 MG cells assessed as accumulation of cells at G0/G1 phase at 0.01 uM by propidium Iodide staining based flow cytometry analysis (reference value: 80.68%); type: functional, U-87MG ATCC
# U-87 MG [22] = assay: Induction of cell cycle arrest in human U-87 MG cells assessed as accumulation of cells at […] at 0.01 uM by propidium Iodide staining based flow cytometry analysis (reference value: 1.67%); type: functional, U-87MG ATCC
# U-87 MG [23] = assay: Induction of cell cycle arrest in human U-87 MG cells assessed as accumulation of cells at S phase at 0.01 uM by propidium Iodide staining based flow cytometry analysis (reference value: 9.59%); type: functional, U-87MG ATCC
# U-87 MG [24] = assay: Induction of cell cycle arrest in human U-87 MG cells assessed as accumulation of cells at G0/G1 phase at 2 uM by propidium Iodide staining based flow cytometry analysis (reference value: 80.68%); type: functional, U-87MG ATCC
# U-87 MG [25] = assay: Induction of cell cycle arrest in human U-87 MG cells assessed as accumulation of cells at G2M phase at 2 uM by propidium Iodide staining based flow cytometry analysis (reference value: 9.73%); type: functional, U-87MG ATCC
# U-87 MG [26] = assay: Induction of cell cycle arrest in human U-87 MG cells assessed as accumulation of cells at […] at 2 uM by propidium Iodide staining based flow cytometry analysis (reference value: 1.67%); type: functional, U-87MG ATCC
# U-87 MG [27] = assay: Induction of cell cycle arrest in human U-87 MG cells assessed as accumulation of cells at S phase at 2 uM by propidium Iodide staining based flow cytometry analysis (reference value: 9.59%); type: functional, U-87MG ATCC
# U-87 MG [28] = assay: Induction of cell cycle arrest in human U-87 MG cells assessed as accumulation of cells at G0/G1 phase at 0.02 uM by propidium Iodide staining based flow cytometry analysis (reference value: 80.68%); type: functional, U-87MG ATCC
# U-87 MG [29] = assay: Induction of cell cycle arrest in human U-87 MG cells assessed as accumulation of cells at […] at 0.2 uM by propidium Iodide staining based flow cytometry analysis (reference value: 1.67%); type: functional, U-87MG ATCC
# U-87 MG [30] = assay: Antitumor activity against human U-87 MG cells xenografted in BALB/c mouse assessed as inhibition of tumor growth at 25 mg/kg, ip administered once daily for 15 days; type: functional, U-87MG ATCC; details: 360 h, time 15 day, read-out: TGI
# [31] = Toxicity in BALB/c mouse implanted with human U-87 MG cells assessed as tolerability at 5 to 25 mg/kg, ip administered once daily for 15 days by H and E staining based analysis; type: organism-based; details: in vivo, 360 h, dose 5-25 mg/kg, time 15 day
# [32] = Toxicity in BALB/c mouse implanted with human U-87 MG cells assessed as liver damage at 25 mg/kg, ip administered once daily for 15 days by H and E staining based analysis; type: organism-based; details: in vivo, 360 h, time 15 day
# [33] = Toxicity in BALB/c mouse implanted with human U-87 MG cells assessed as tubular epithelial degeneration in renal cortex at 25 mg/kg, ip administered once daily for 15 days by H and E staining based analysis; type: organism-based; details: in vivo, 360 h, time 15 day
structure (smiles),measurement,setting,value
CNC(=O)c1ccccc1Nc1nc(Nc2ccc(N3CCN(CCOC(=O)CCCc4ccc(N(CCCl)CCCl)cc4)CC3)cc2)ncc1C(F)(F)F,IC50,U-251,20 nM
same,inhibition,Focal adhesion kinase 1 [1],100%
same,inhibition,Focal adhesion kinase 1 [2],98.6%
same,logD,[3],6.06
same,Activity,U-87 MG [4],11.6
same,Activity,U-87 MG [5],Active
same,inhibition at 0.005 µM,U-87 MG [6],73%
same,inhibition,U-87 MG [7],Active
same,inhibition,Focal adhesion kinase 1 [8],100%
same,inhibition,U-87 MG [9],100%
same,viability at 2 µM,U-87 MG [10],44.2%
same,Activity,U-87 MG [11],46.5%
same,Activity,U-87 MG [12],7.19%
same,Activity,U-87 MG [13],2.16%
same,viability at 0.02 µM,U-87 MG [14],63.8%
same,Activity,U-87 MG [15],4.8%
same,Activity,U-87 MG [16],5.5%
same,viability at 0.2 µM,U-87 MG [17],63.7%
same,Activity,U-87 MG [18],28.3%
same,Activity,U-87 MG [19],2.31%
same,Activity,U-87 MG [20],Active
same,Activity,U-87 MG [21],69.64%
same,Activity,U-87 MG [22],1.77%
same,Activity,U-87 MG [23],13.83%
same,Activity,U-87 MG [24],38.9%
same,Activity,U-87 MG [25],50.11%
same,Activity,U-87 MG [26],1.88%
same,Activity,U-87 MG [27],10.99%
same,Activity,U-87 MG [28],62.68%
same,Activity,U-87 MG [29],1.81%
same,inhibition in vivo at 25 mg/kg,U-87 MG [30],82.5%
same,Activity,[31],Non-toxic
same,Activity,[32],Non-toxic
same,Activity,[33],Non-toxic
